Patent US5948800A, “Preventive or therapeutic drug for Alzheimer's disease” (A. Nattermann & Cie. GmbH, priority 1996, dated 1999)
“Also recorded” adds a separate entry of the source.

Experiments:
PC12 cells [1] = experiment: Generation of hydrogen peroxide in PC12 cells to which SNAP was added (DCFH, FACS); type: cell-based, rat; conditions: for Amounts of generated H2O2 (% log fluorescence of control): n = 3
Protocol: PC12 cells (derived from rats, chromaffin tumor) were cultured and subcultured in a 100 mm dish (made of Corning) coated with polylysine and containing a DMEM medium supplemented with 10% FCS and 5% horse serum (product of Sigma). Briefly, PC12 cells (1×10^6 cells/dish) were seeded in a 100 mm dish coated with polylysine. In order to induce differentiation of the PC12 cells, the cells were grown for 7 days in a DMEM medium containing 5% FCS, 50 ng/ml NGF, and 1% horse serum. The PC12 cells were then peeled off through pipetting and suspended in a suitable medium to prepare a cell suspension. The cell suspension was seeded into each well of a […], polylysine-coated 96-well dish (1×10^4 cells/well). After adhesion of the cells was confirmed, the following procedure was performed.
The thus-adhered PC12 cells were placed in a DMEM medium. To the cells were added 10 μM of SNAP and 2.5 μM of compound A. For control groups, only SNAP was added. Each sample was incubated for 3 hours. Thereafter, a solution of DCFH-DA (Molecular Probes, Inc.) in DMSO (1 mg/413 μl) which had been prepared in advance was added to each PC12-containing sample so that a final concentration of 5 μM was obtained, and the samples were then incubated for 30 minutes. The cells were removed using trypsin-EDTA, and recovered via centrifugation (1,000 rpm×5 min.). The recovered cells were suspended in 50 μl of PBS(-) while being cooled with ice. The amount of intracellular hydrogen peroxide was determined using a flow cytometer; The cell suspension was subjected to FACS (fluorescence-activated cell sorting), and the amount of the fluorescent substance, […], which had been oxidized by peroxides was measured.

[2] = test system: glutathione peroxidase-like activities; conditions: stated in description of control compound; cited from earlier work
PC12 cells [3] = experiment: Viability of PC12 cells in the presence of Aβ (MTT method); type: cell-based, rat; conditions: for Suppression of neuron death caused by Aβ (in words): Aβ 10 μM, compound 0.1, 1 or 2.5 μM, PC12; for viability at 0.1 µM / viability at 1 µM / viability at 2.5 µM: Rattus norvegicus, PC-12, 48 h, read-out: Viability of cells (% of control)
Protocol: PC12 cells (derived from rats, chromaffin tumor) were cultured and subcultured in a 100 mm dish (made of Corning) coated with polylysine and containing a DMEM medium supplemented with 10% FCS and 5% horse serum (product of Sigma). Briefly, PC12 cells (1×10^6 cells/dish) were seeded in a 100 mm dish coated with polylysine. In order to induce differentiation of the PC12 cells, the cells were grown for 7 days in a DMEM medium containing 5% FCS, 50 ng/ml NGF, and 1% horse serum. The PC12 cells were then peeled off through pipetting and suspended in a suitable medium to prepare a cell suspension. The cell suspension was seeded into each well of a polylysine-coated 96-well dish (1×10^4 cells/well). Subsequently, Aβ (Bachem Feinchmikalien AG) was added so that a final concentration of 10 μM was achieved. Compound A was also added so that a final concentration of 0.1, 1.0, or 2.5 μM was achieved. […] The cells were cultured for 48 hours from the addition of compound A or compound B.
An MTT reagent (3-(4,5-dimethylthiazole-2-yl)-2,5-diphenyl tetrazolium bromide) was added to the thus-treated cells, incubation was performed for 4 hours, and the cells were lysed. The subsequent procedure was performed using a so-called MTT method, which employs colorimetry based on a reduction reaction of the reagent, to thereby obtain the viability of the cells in the suspension (Behl, C. et al., Cell, 77: 817-827, 1994). [drawing 1]

LD50 in mice = conditions: mouse, in vivo, oral
Description: (§1) Toxicity of compound A has been studied by obtaining LD50 values in mice and rats.

LD50 in rats = conditions: rat, in vivo
Description: as §1

mice or rats = experiment: Adverse side effects at high dose in mice or rats; type: in vivo

SMILES | Amounts of generated H2O2 (% log fluorescence of control) (PC12 cells [1]; SNAP 10 μM alone) | Increase of generation of hydrogen peroxide over the level without SNAP (PC12 cells [1]; SNAP 10 μM, 3 hours) | Glutathione peroxidase-like activities [2] | Suppression of neuron death caused by Aβ (in words) (PC12 cells [3]) | viability at 0.1 µM (PC12 cells [3]) [%] | viability at 1 µM (PC12 cells [3]) [%] | viability at 2.5 µM (PC12 cells [3]) [%] | LD50 (LD50 in mice) [mg/kg] | LD50 (LD50 in rats; ip, intraperitoneal) [mg/kg] | LD50 (LD50 in rats; oral) [mg/kg] | Adverse side effects (mice or rats) | Suppression of generation of hydrogen peroxide (in words) (PC12 cells [1]; SNAP 10 μM, compound A 2.5 μM, P≤0.0015) | Amounts of generated H2O2 (% log fluorescence of control) (PC12 cells [1]; SNAP 10 μM, compound A 2.5 μM, P ≤ 0.0015 vs SNAP) | Suppression of generation of hydrogen peroxide induced by Aβ (in words) (PC12 cells [1]; concluding statement)
CC(=O)NC(C(=O)O)C(C)(C)SN=O (racemic) [SNAP, Snitroso-N-acetyl-DL-penicillamine, reference compound] | 135.8 ± 5.25 % log fluorescence of control | 1.3-1.4 times | – | – | – | – | – | – | – | – | – | – | – | –
O=c1c2ccccc2sn1-c1ccccc1 [B, 2-phenyl-1,2-benzothiazol-3(2H)-one, reference compound] | – | – | having no glutathione peroxidase-like activities | the death rate could not be suppressed | 14 ± 4.5 | 13 ± 1 | 10 ± 5 | – | – | – | – | – | – | –
O=c1c2ccccc2[se]n1-c1ccccc1 [Compound A, 2-phenyl-1,2-benzisoselenazol-3(2H)-one] | – | – | – | neuron death suppressed significantly in all cases | 45 ± 2.1 | 59 ± 14.5 | 66 ± 4.5 | ≥ 6810 | 580 | ≥ 6810 | no problematic adverse side effects were observed | significantly suppressed; also recorded: satisfactorily suppressed | 45.7 ± 6.03 % log fluorescence of control | significantly suppresses generation of hydrogen peroxide
